Values of other authors in article PMC9854340 (RSC Advances, 2023).

Tests used:
[1] = system: HL-60 human myeloblastic leukemia cells; conditions: HL-60 cells, MTT; data taken from a previous report
[2] = folding square to folded form; CH3CN-d3; van't Hoff plot; previous report

## Ascidiacyclamide [Peptide 1a]
[1]
  ED50: 32.9 ± 0.9 µg/mL
[2]
  ΔH°: -2.28 kcal/mol
  ΔS°: -0.009417 kcal/mol
